Test results published in paper PMC6547622 (ACS Omega, 2019).

Legend:
Type in all cases: biochemical
[1] = biological target: βPGM from L. lactis (Lactococcus lactis subsp. lactis, UniProt P71447); experiment: IC50 determination of βPGM
[2] = biological target: T1, αPMM/PGM from P. aeruginosa (Pseudomonas aeruginosa, UniProt P26276); experiment: IC50 determination of αPMM/PGM
T1 sequence (P26276 1-463): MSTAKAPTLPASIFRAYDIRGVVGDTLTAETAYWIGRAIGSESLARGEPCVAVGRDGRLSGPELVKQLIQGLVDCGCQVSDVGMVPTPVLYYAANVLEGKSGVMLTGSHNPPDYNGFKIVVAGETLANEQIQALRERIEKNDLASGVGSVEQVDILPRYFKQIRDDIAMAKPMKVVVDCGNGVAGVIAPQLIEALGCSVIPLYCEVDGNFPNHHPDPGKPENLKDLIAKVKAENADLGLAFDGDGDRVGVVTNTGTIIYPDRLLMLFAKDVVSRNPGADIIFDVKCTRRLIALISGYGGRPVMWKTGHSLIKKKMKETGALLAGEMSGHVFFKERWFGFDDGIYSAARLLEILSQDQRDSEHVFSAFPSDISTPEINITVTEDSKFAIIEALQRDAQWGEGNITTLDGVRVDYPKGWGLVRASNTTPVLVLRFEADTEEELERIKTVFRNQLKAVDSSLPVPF

[3] = biological target: T2, αPMM/PGM (Pseudomonas aeruginosa, UniProt P26276); experiment: Michaelis Menten kinetics of αPMM/PGM; settings: read-out: Km(αG1P), variable αG1P 0–200 µM
T2 sequence (P26276 1-463): T1 sequence (P26276 1-463)

**Q.** For `C[C@]1(O)O[C@H](COP(=O)(O)O)[C@@H](O)[C@H](O)[C@H]1O` [compound 1, 1-Deoxy-α-D-gluco-heptulose 7-Phosphate], which IC50 [1] is on record?
**A.** The IC50 was 113 ± 3 µM.

**Q.** What about the Ki [1] of the same compound?
**A.** The Ki was 57 ± 2 µM.

**Q.** And the IC50 [2]?
**A.** Its IC50 is 131 ± 1 µM.

**Q.** What about the Ki [2] of the same compound?
**A.** The Ki was 65 ± 0.5 µM.

**Q.** With `O=P(O)(O)OC[C@H]1O[C@@](O)(CF)[C@H](O)[C@@H](O)[C@@H]1O` [compound 2, 1-Deoxy-1-monofluoro-α-D-gluco-heptulose 7-Phosphate] as the compound, how does the IC50 [1] read?
**A.** The IC50 was 183 ± 14 µM.

**Q.** And the Ki [1]?
**A.** Its Ki is 92 ± 7 µM.

**Q.** What about the IC50 [2] of the same compound?
**A.** Its IC50 is 234 ± 29 µM.

**Q.** What about the Ki [2] of the same compound?
**A.** Its Ki is 117 ± 14 µM.

**Q.** For `O=P(O)(O)OC[C@H]1O[C@@](O)(C(F)F)[C@H](O)[C@@H](O)[C@@H]1O` [compound 3, 1-Deoxy-1,1-difluoro-α-D-gluco-heptulose 7-Phosphate], which IC50 [1] is on record?
**A.** The IC50 was 214 ± 11 µM.

**Q.** What about the Ki [1] of the same compound?
**A.** The Ki was 107 ± 6 µM.

**Q.** And the IC50 [2]?
**A.** The IC50 was 288 ± 37 µM.

**Q.** And the Ki [2]?
**A.** The Ki was 144 ± 18 µM.

**Q.** `O=P(O)(O)O[C@H]1O[C@H](CO)[C@@H](O)[C@H](O)[C@H]1O` [αG1P, glucose 1-phosphate] was tested. Which Km [3] did it give?
**A.** Its Km is 20 µM.
